Experimental data reported in US6706880B2 (Research Triangle Institute, priority 1990, dated 2004).
Where two headings read alike, the source gives them in different places.

Key:
[1] = target: dopamine transporter (UniProt P23977); type: binding
Description: (§1) Illustrative in vitro assays for binding are described in Boja et al Ann. NY Acad. Sci. 654:282-291 (1992), which is incorporated herein by reference in its entirety. […] Alternatively, the compounds may be analyzed by their ability to inhibit reuptake of a labelled neurotransmitter in a sample, in particular, in synaptosomes.

[2] = target: T1, serotonin transporter (Rattus norvegicus, UniProt P31652); test: Inhibition of [3H]paroxetine radioligand binding at the serotonin transporter
T1 construct: from tissue
T1 sequence (P31652 whole entry): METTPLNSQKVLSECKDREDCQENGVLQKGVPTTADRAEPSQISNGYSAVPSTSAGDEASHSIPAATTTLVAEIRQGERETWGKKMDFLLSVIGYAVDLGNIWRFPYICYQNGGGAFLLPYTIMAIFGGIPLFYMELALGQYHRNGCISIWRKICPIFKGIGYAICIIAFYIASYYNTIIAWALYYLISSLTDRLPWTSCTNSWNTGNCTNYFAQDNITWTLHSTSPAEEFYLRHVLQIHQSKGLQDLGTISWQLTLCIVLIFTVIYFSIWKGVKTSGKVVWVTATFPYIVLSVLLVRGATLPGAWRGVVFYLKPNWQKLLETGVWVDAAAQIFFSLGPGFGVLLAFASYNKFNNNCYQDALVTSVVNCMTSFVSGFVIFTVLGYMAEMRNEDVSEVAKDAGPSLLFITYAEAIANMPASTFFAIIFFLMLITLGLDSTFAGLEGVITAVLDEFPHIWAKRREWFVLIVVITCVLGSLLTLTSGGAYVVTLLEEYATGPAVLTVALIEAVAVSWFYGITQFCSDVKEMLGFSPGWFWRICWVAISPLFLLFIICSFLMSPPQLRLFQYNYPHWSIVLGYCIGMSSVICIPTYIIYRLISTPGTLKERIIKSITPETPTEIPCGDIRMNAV
Description: as §1

[3] = target: norepinephrine transporter (UniProt Q9WTR4); test: Inhibition of [3H]nisoxetine radioligand binding at the norepinephrine transporter
Description: as §1

[4] = read-out: DA IC50 for inhibition of radioligand binding, DA=[3H]WIN 35,428
[5] = 5-HT IC50 for inhibition of radioligand binding, 5-HT=[3H] paroxetine
[6] = read-out: NEN IC50 for inhibition of radioligand binding, NEN=[3H] nisoxetine
[7] = read-out: IC50 DA [3H]-WIN 35,428, Table IV
[8] = IC50 5-HT [3H]-paroxetine, Table IV
[9] = read-out: IC50 NE [3H]-nisoxetine, Table IV
[10] = 5-HT=[3H] paroxetine, read-out: 5-HT IC50 for inhibition of radioligand binding

| Structure (SMILES) | IC50 [1, 4] [nM] | IC50 [2, 5] [nM] | IC50 [3, 6] [nM] | IC50 [1, 7] [nM] | IC50 [2, 8] [nM] | IC50 [3, 9] [nM] | IC50 [2, 10] [nM] | IC50 ([1]; read-out: IC50 DA [3H] WIN 35,428, Table III) [nM] | IC50 ([2]; IC50 5-HT [3H] Paroxetine, Table III) [nM] | IC50 ([3]; read-out: IC50 NE [3H] Nisoxetine, Table III) [nM] |
| --- | --- | --- | --- | --- | --- | --- | --- | --- | --- | --- |
| CC(C)c1noc(C2C(c3ccc(Cl)cc3)CC3CCC2N3C)n1 (stereo not drawn) [RTI-4229-154] | 6 | 3460 | 135 | – | – | – | – | – | – | – |
| C=C(C)C1C(c2ccc(Cl)cc2)CC2CCC1N2C (stereo not drawn) [RTI-4229-230] | 1.26 | 57.4 | 141 | 1.28 ± 0.17 | 57 ± 50 | 141 ± 18 | – | – | – | – |
| CN1[C@H]2CC[C@@H]1[C@@H](CO)[C@@H](c1ccc(Cl)cc1)C2 [RTI-93] | – | – | – | 1.53 ± 0.15 | 204 ± 16 | 43.8 ± 6.4 | – | – | – | – |
| CN1C2CCC1C(C(=O)OC1CC1)C(c1ccc(I)cc1)C2 (stereo not drawn) [RTI-4229-191] | 0.61 | – | 102 | – | – | – | 15.5 | – | – | – |
| Cc1ccc(C2CC3CCC(C2CN(C)C)N3C)cc1 (stereo not drawn) [RTI-4229-132] | 3.48 | 208 | 137 | 3.48 ± 0.11 | 208 ± 18 | 137 ± 11 | – | – | – | – |
| CN1[C@H]2CC[C@@H]1[C@@H](C(=O)O)[C@@H](c1ccc(Br)cc1)C2 [RTI-103] | – | – | – | 278 ± 43 | 3070 ± 208 | 17400 | – | – | – | – |
| CN1[C@H]2CC[C@@H]1[C@@H](C(=O)O)[C@@H](c1ccc(I)cc1)C2 [RTI-102] | – | – | – | 474 ± 57 | 1930 ± 120 | 43400 | – | – | – | – |
| CN1C2CCC1C(c1nc(-c3ccc(Cl)cc3)no1)C(c1ccc(Cl)cc1)C2 (stereo not drawn) [RTI-4229-143] | 4.1 | 404 | 4070 | – | – | – | – | – | – | – |
| CN1C2CCC1C(COC(=O)c1ccccc1)C(c1ccc(Cl)cc1)C2 (stereo not drawn) [RTI-4229-123] | 1.78 | 3.53 | 393 | 1.78 ± 0.09 | 3.53 ± 0.58 | 393 ± 30 | – | – | – | – |
| COC(=O)C1C(c2ccc3ccccc3c2)CC2CCC1N2C (stereo not drawn) [RTI-4229-319] | 1.1 | 11.4 | 70.2 | – | – | – | – | – | – | – |
| CC#Cc1ccc(C2CC3CCC(C2C(=O)OC)N3C)cc1 (stereo not drawn) [RTI-4229-281] | 2.37 | – | 820 | – | – | – | 15.7 | – | – | – |
| CN1C2CCC1C(c1nc(-c3ccccc3)no1)C(c1ccc(Cl)cc1)C2 (stereo not drawn) [RTI-4229-130] | 1.62 | – | 245 | – | – | – | 195 | – | – | – |
| CN1C2CCC1C(C(=O)Oc1ccccc1)C(c1ccc([N+](=O)[O-])cc1)C2 (stereo not drawn) [RTI-4229-277] | 5.94 | 2910 | 5700 | – | – | – | – | – | – | – |
| COC(=O)C1C2CCC(CC1c1ccc(C)cc1)N2 (stereo not drawn) [RTI-4229-305] | 1.24 | 1.59 | 21.8 | – | – | – | – | – | – | – |
| COC(=O)C1C(c2ccc(C)c(I)c2)CC2CCC1N2C (stereo not drawn) [RTI-4229-280] | 3.12 | 6.81 | 484 | – | – | – | – | – | – | – |
| CNC[C@H]1[C@@H](c2ccc(C)cc2)C[C@@H]2CC[C@H]1N2C [RTI-164] | – | – | – | 13.6 ± 2.03 | 2250 ± 94 | 280 ± 19 | – | – | – | – |
| CCC(CC)OC(=O)C1C(c2ccc(C)cc2)CC2CCC1N2C (stereo not drawn) [RTI-4229-127] | 19 | – | 3440 | – | – | – | 4500 | – | – | – |
| COC(=O)CC1C(c2ccc(C)cc2)CC2CCC1N2C (stereo not drawn) [RTI-4229-241] | 1.02 | 618 | 124 | 1.02 ± 0.06 | 618 ± 28 | 124 ± 3.56 | – | – | – | – |
| CCc1cc([C@@H]2C3CCC(C[C@@H]2c2ccc(Cl)cc2)N3C)on1 (stereo partly drawn) [RTI-4229-334] | 0.5 | 3090 | 120 | – | – | – | – | – | – | – |
| CC(C)C1C(c2ccc(Cl)cc2)CC2CCC1N2C (stereo not drawn) [RTI-4229-240] | 1.38 | 38.4 | 84.5 | 1.38 ± 0.03 | 38.4 ± 2.31 | 84.5 ± 3.09 | – | – | – | – |
| COC(=O)C1C2CCC(CC1c1ccc(Cl)cc1)N2 (stereo not drawn) [RTI-4229-110] | 0.62 | – | 5.45 | – | – | – | 4.13 | – | – | – |
| Cc1ccc(C2CC3CCC([C@H]2C(=O)OC2CCC2)N3C)cc1 (stereo partly drawn) [RTI-4229-150] | 3.74 | 2020 | 4740 | – | – | – | – | – | – | – |
| COC(=O)C1C2CCC(CC1c1ccc(C)c(I)c1)N2 (stereo not drawn) [RTI-4229-279] | 5.96 | 1.06 | 74.3 | – | – | – | – | 5.98 ± 0.48 | 1.06 ± 0.39 | 74.3 ± 3.8 |
| Cc1ccc(C2CC3CCC(C2C(C)C)N3C)cc1 (stereo not drawn) [RTI-4229-239] | 0.61 | 114 | 35.6 | 0.61 ± 0.07 | 114 ± 3.69 | 35.6 ± 2.57 | – | – | – | – |
